Test results published in patent publication US20140364417A1, “METHOD OF TREATING ATRIAL FIBRILLATION” (Gilead Sciences, Inc., priority 2013, published 2014).
Several values for one entry are separate records, joined by “and”; a condition that tells them apart may be missing. Identical values can stand only once. Entries after “also recorded” stand apart in the source; their conditions may differ.

Experiments:
[1] = test system: Guinea Pig Isolated Hearts; assay: S-H interval (AV nodal conduction) in guinea pig isolated, Langendorff-perfused paced hearts; conditions: for second-degree AV block (dropped beats): isolated paced hearts, drug alone; for increase in the S-H interval compared to control (no drug): ivabradine 0.1 μM, ranolazine 2 μM, alone or combined, pacing rate of 4 and 5 Hz, FIG. 1
Excerpt: To test the combined effects of ranolazine and ivabradine on AV conduction, the following experimental procedures were employed.
Guinea pigs (Hartley) of either sex weighing 300-350 g were anesthetized by inhalation of isoflurane. The chest of a guinea pig was cut open, and the heart was quickly removed and rinsed in ice-cold modified Krebs-Henseleit (K-H) solution. The contents of the modified K-H solution were (in mM) 117.9 NaCl, 4.8 KCl, 2.5 CaCl2, 1.18 MgSO4, 1.2 KH2PO4, 0.5 Na2 EDTA, 0.14 ascorbic acid, 5.5 dextrose, 2.0 pyruvic acid (sodium salt), and 25 NaHCO3. The K-H solution was continuously gassed with 95% O2-5% CO2, and the pH was adjusted to a value of 7.4.
To perfuse the heart by the Langendorff method, the transected aorta was slid onto a glass cannula and secured by a ligature. Retrograde perfusion of the aorta was initiated immediately at a constant flow of 10 mL/min with modified K-H solution warmed to 37.0±0.5° C. A side port in the cannula was used to connect the perfusion line to a pressure transducer (AD Instruments, Australia) for measurement of coronary perfusion pressure (CPP). To facilitate the exit of fluid from the left ventricle, the leaflets of the mitral valve were trimmed with fine spring-handled scissors. Hearts were allowed to beat spontaneously in experiments to measure heart rate, or paced at a constant rate using external electrodes, in experiments to measure AV conduction time. After completion of dissection and instrumentation, stimulus-to-H is bundle (S-H) interval was monitored continuously. Each heart was allowed to equilibrate for 20-40 min before the administration of drug. Experimental interventions were always preceded and followed by control measurements.
To facilitate the recording of a drug effect on the S-H interval, parts of the left and right atrial tissues, including the region of the sinoatrial node, were removed, both to decrease the spontaneous heart rate and to expose the atrial septum for electrode placement. A bipolar Teflon-coated electrode was placed in the wall of the intra-atrial septum to pace the heart. […] Stimuli were provided by a stimulation generator (model 48, Grass Instruments, W. Warwick, R I) and delivered to the heart through a stimulus isolation unit as square wave pulses of 3 msec duration and at least twice the threshold intensity.
A His bundle electrogram was recorded using a Teflon-coated unipolar electrode placed in the right side of the interatrial septum adjacent to the AV junction. […]
Ivabradine (Iva), ranolazine (Ran) or the combination thereof was infused to the hearts. Each concentration of Iva was infused for about 20 min to allow a steady-state response to be recorded, whereas each concentration of ranolazine was infused for 10 min to allow a steady-state response to be recorded. […]

male Yorkshire pigs = assay: A-H, H-V, PR and QT intervals during right atrial pacing in anesthetized pigs; format: in vivo; conditions: for increase in PR interval: ivabradine 0.25 mg/kg, 30 min after ivabradine administration; for effect on atrial-His (A-H) interval: right atrial pacing at 180 beats/min, FIG. 6 left panel; for effect on atrial-His (A-H) interval / effect on PR interval: ivabradine 0.25 mg/kg bolus; for effect on PR interval: right atrial pacing at 180 bpm, FIG. 5 upper panel
Method: Data were gathered from male Yorkshire pigs (n=16) weighing 35±2 kg (mean±SEM). The animals were preanesthetized with telazol (4.7 mg/kg, intramuscularly) and then anesthetized with alpha-chloralose (100 mg/kg, i.v., bolus followed by 40 mg/kg/h, i.v., continuous infusion). The animals were intubated and ventilation was maintained between 10-16 breaths/min with volumes between 400-500 mL. Vital signs including core body temperature, heart rate, and oxygen saturation were continuously monitored.
The right and left femoral veins were cannulated with 7Fr introducer sheaths using the Seldinger technique to insert catheters in the right atrial (RA) appendage for pacing and for positioning the intrapericardial catheter. Arterial blood pressure was continuously monitored from a femoral arterial sheath, and intravenous fluids were administered through the ear vein. The electrocardiogram (ECG) was recorded with a Prucka Cardiolab workstation (GE Medical Systems, Milwaukee, Wis.) from atrial and ventricular sites.
Ranolazine was given as a 2.4 mg/kg, i.v., bolus followed by continuous infusion of 0.135 mg/kg/min, i.v.
A nonsteerable, quadripolar electrode catheter (Bard Electrophysiology, Lowell Mass.) was placed in the right atrium (RA) via the femoral vein and a second quadripolar electrode catheter in the right ventricle via the jugular vein. A bipolar electrode was placed in the non-coronary cusp of the aorta through the left carotid artery to record the His bundle electrogram. A pigtail catheter was inserted in the left ventricle via the left femoral artery to record and calculate contractility [left ventricular dP/dt]. Transatrial access was employed to deliver acetylcholine (ACh) into the pericardial space. Specifically, a small puncture was made in the RA appendage with the stiff end of a coronary angioplasty guidewire (0.014-inch Wizdom guidewire, Cordis, Miami, Fla., USA) placed within the lumen of a soft infusion catheter (0.038-inch SOS straight-tip, open-ended angiographic guidewire, Bard Electrophysiology). This wire-within-wire system was advanced as a unit into an 8Fr multipurpose guide catheter (MP2, Boston Scientific, Boston Mass.) previously positioned in the RA appendage via a femoral vein under fluoroscopic guidance and into the pericardial space. The infusion catheter was left in the pericardial space for delivery of ACh and the inner guidewire was removed. Conformation of the infusion catheter on fluoroscopy to the curvature of the heart verified its location within the pericardial space. All of the pericardial fluid was then aspirated with the infusion catheter. Intrapericardial access is associated with a hematocrit <2%, indicating minimum trauma from the atrial puncture (Kumar et al., J Cardiovasc Electrophysiol 2009; 20:796-802). The presence of acetylcholinesterase can rapidly degrade ACh and prevent a sustained response to this neurotransmitter.
The electrical stimulation protocol described below was performed in the control state and after the ivabradine bolus and after ranolazine administration and the combination of ranolazine and ivabradine. Burst pacing was performed after ACh injection into the pericardium and AF was invariably elicited. Ventricular rate during AF was determined by counting the R waves during the 6th minute of AF. Two episodes of AF separated by 10 min were induced to establish control levels.
A Bloom stimulator (Bloom Associates, Reading Pa.) was used to deliver constant-current rectangular stimuli for fixed-rate pacing as well as for delivering premature stimuli. To elicit AF, a burst pacing stimulation with a cycle length of 200 msec was performed. A-H, His-ventricular (H-V), PR and QT interval measurements were made during right atrial pacing at 130 and 180 beats/min.
The statistical tests were carried out with a SAS statistical package (SAS Institute, Cary, N.C.). […]

[2] = ivabradine 0.25 mg/kg i.v., ranolazine 2.4 mg/kg bolus + 0.135 mg/kg/min, pacing 130 beats/min
[3] = larger series, ivabradine 0.25 mg/kg i.v., ranolazine 2.4 mg/kg bolus + 0.135 mg/kg/min, pacing 180 beats/min, FIG. 6
[4] = pacing 130 beats/min, ranolazine 2.4 mg/kg bolus + 0.135 mg/kg/min
[5] = pacing 180 beats/min, ranolazine 2.4 mg/kg bolus + 0.135 mg/kg/min
[6] = pacing rate 180 beats/min, FIG. 2 (first series)

Row | SMILES | second-degree AV block (dropped beats) [1] | increase in the S-H interval compared to control (no drug) [1] | increase in A-H interval (male Yorkshire pigs; [2]) | increase in A-H interval (male Yorkshire pigs; [3]) | HV interval after drug (male Yorkshire pigs; male, Yorkshire, pig, in vivo) | QT interval after drug (male Yorkshire pigs; male, Yorkshire, pig, in vivo) | increase in PR interval (male Yorkshire pigs; [4]) | increase in PR interval (male Yorkshire pigs; [5]) | increase in A-H interval (male Yorkshire pigs; [6]) | A-H interval after drug (male Yorkshire pigs; representative experiment FIG. 7, pacing 180 beats/min, before drug 100 msec, ranolazine, then ivabradine 0.25 mg/kg) | PR interval after drug (male Yorkshire pigs; representative experiment FIG. 7, pacing 180 beats/min, before drug 123 msec) | effect on atrial-His (A-H) interval (male Yorkshire pigs) | effect on PR interval (male Yorkshire pigs) | effect on QT interval (male Yorkshire pigs; right atrial pacing at 130 and 180 beats/min, FIG. 5 lower panel) | effect on His-ventricular (H-V) interval (male Yorkshire pigs; right atrial pacing at 130 and 180 beats/min, FIG. 6 right panel)
1 | COc1ccccc1OCC(O)CN1CCN(CC(=O)Nc2c(C)cccc2C)CC1 (racemic) [ranolazine, (±)-N-(2,6-dimethylphenyl)-4-[2-hydroxy-3-(2-methoxyphenoxy)-propyl]-1-piperazineacetamide] | without causing second-degree AV block | small but significant increase | 2.0 ± 2.6 ms | 13.8 ± 3.9 ms | 35 ms | 282 ms | 5 ± 1.8 ms | 19 ± 2.8 ms | 18 ms and 18.4 ms | 107 ms | 131 ms | did not | increased PR interval |  | 
2 | COc1cc2c(cc1OC)CC(=O)N(CCCN(C)C[C@H]1Cc3cc(OC)c(OC)cc31)CC2 [ivabradine, 3-{3-[{[(7S)-3,4-dimethoxybicyclo[4.2.0]octa-1,3,5-trien-7-yl]methyll}-(methyl)amino]propyl}-7,8-dimethoxy-1,3,4,5-tetrahydro-2H-3-benzapenin-2-one] | without causing second-degree AV block | small but significant increase | 15.5 ms | 22.0 ± 3.5 ms |  |  | 16 ± 3.9 ms | 20 ± 3.5 ms | 31 ms and 31.2 ms |  |  | increased atrial-His (A-H) interval | increased PR interval | not altered; also recorded: neither drug nor their combination altered QT interval | unchanged; also recorded: neither drug nor their combination altered His-ventricular (H-V) interval
